Experiment [1] relates to G-quadruplex in promoter region of the c-myc gene (NHE III1 segment). Nature of the experiment: Dual luciferase analysis with plasmid pGL4.10-myc (luc2) in HGC-27 cells. It counts as cell-based, human. To be noted: for inhibition at 50 µM / activity at 50 µM: Homo sapiens; for inhibition at 50 µM: HGC-27, text summary of tab. 5 (50 μmol·l^−1), read-out: inhibition of expression of firefly luciferase as compared to control; for activity at 50 µM: read-out: luciferase expression relative to control (control = 100%). An excerpt: A dual luciferase analysis was used to determine the degree of stabilization of G-quadruplex in a promoter region of the c-myc gene on cellular level. Stabilization of G-quadruplex is expressed as the ratio of expression of two luciferases (firefly and Renilla) from the co-transfected vectors pGL4.10-myc (luc2) and pRL-TK (Renilla) into a cell line HGC-27 expressing c-myc protein. Expression of the reporter gene (firefly luciferase) from pGL4.10-myc vector is controlled by the c-myc regulatory region of a length of 860 by (in the range from −306 to +554). The inserted sequence contains NHE III1 segment which forms G-quadruplex [Yang, D. et al. (2010) Future Med Chem., 2, 619], and is responsible for as much as 90% of the transcriptional activity of the c-myc gene.
Level of expression of firefly luciferase reporter gene corresponds to promoter activity of c-myc and thus to the degree of stabilization of the G-quadruplex. The signal is normalized to Renilla luciferase expression from pRL-TK vector under the control of a constitutive viral thymidine kinase (HSV-TK) promoter. The amount of Renilla luciferase expression serves as an internal control for normalization of firefly signal on transfection efficiency in the sample. Plasmids pGL4.10-myc (luc2) and pRL-TK were propagated in Escherichia coli (DH5α strain) and purified using the Qiagen Plasmid Mini and Midi kits. Cells were cultured under standard conditions and in exponential growth phase were seeded into a white 96-well microtiter plates. Transfection was carried out using a transfection reagent X-tremeGENE HP DNA in OptiMEM media for two hours. The ratio of reporter and control vector was 1:1 and the ratio of transfection reagent to the total amount of DNA was 1:1. Two hours after transfection helquats were added in a concentration of 50 μmol·l^−1. Quantity of firefly and Renilla luciferases in the samples was determined 24 hours after transfection. Dual luciferase analysis was performed using a commercially available kit (Promega, cat. No. E1960) according to manufacturer's instructions. Luminescence was measured using a luminometer EnSpire Alpha Plate Reader. The data obtained were normalized to the Renilla luciferase signal and then the values were related to control.

The next experiment has as its system HUVEC. In words: XTT cytotoxicity/proliferation assay, HUVEC. It counts as cell-based, human. Here is the method: To assess the antiproliferative effects of the tested substances in vitro, tumor cell line CCRF-CEM derived from acute lymphoblastic leukemia and normal (healthy) HUVEC endothelial cells from umbilical vein were used. Both of these cell lines were cultured under optimal conditions for their growth in the appropriate medium in plastic bottles or plastic Petri dishes of various sizes (TPP, BD Biosciences) at 37° C., 5% CO2 and 95% humidity. HUVEC cells were purchased from BD Biosciences. CCRF-CEM cell line was obtained from ATCC/LGC Standards (American Type Cell Collection). Normal human endothelial cells from the umbilical vein are adherent cells, which were grown in plastic Petri dishes coated with collagen I. The culture medium (E-STIMTM; BD Biosciences, cat. […] Then, 5 ml of complete culture media E-STIM™ was added and the cells were centrifuged (180×g, 7 minutes), resuspended and transferred in a desired amount in a new Petri dish with fresh medium. In the experiments cells between passages 3 and 8 (after thawing) were used. Population doubling time of HUVEC cells under the used culture conditions is 38 hours. For testing of the sensitivity of cell lines to studied helquats XTT cytotoxicity/proliferation assay for determination of cell viability was used. This method is based on the ability of metabolically active cells to reduce the yellow tetrazolium salt XTT to orange formazan. The rate of conversion is measured as the increase in absorbance at 492 nm and is proportional to the enzymatic activity of mitochondrial dehydrogenases and thus the number of metabolically active (viable) cells. […] Thus it reflects the effectiveness of the test substance towards the tested cell line. Cells in exponential growth phase were plated into 96-well microtiter plate at a concentration of 3000 cells per well. Each well contained 90 μl of cell suspension. The following day, 10 μl of 10× concentrated test substances was added. […] In addition to the part of the plate containing the mentioned dilutions of test compounds there were always two control columns present, first column with medium alone (i.e. blank) and the second column with the cells in medium without test compounds (control). Into the blank and control wells the same volume of solvent (water) as the volume of the substances was added. After 72 hours of treatment with substances the measurement of viability was performed according to the manufacturer instructions. Briefly, into each well of a 96-well microtiter plate 50 μl of the prepared working solution of XTT (detection reagent) was added and then the microtiter plate was returned to the CO2 incubator. After 2 hours, the absorbance of each well at 492 nm (reference wavelength 690 nm) was measured using a multifunctional microplate reader (Tecan Genios, Austria).
(Tetrazolium assays rely on reduction of a dye to a coloured formazan, in cell work by metabolically active cells.)

The next experiment relates to CCRF-CEM. Nature of the experiment: XTT cytotoxicity/proliferation assay, CCRF-CEM. It counts as cell-based. The protocol:
To assess the antiproliferative effects of the tested substances in vitro, tumor cell line CCRF-CEM derived from acute lymphoblastic leukemia and normal (healthy) HUVEC endothelial cells from umbilical vein were used. Both of these cell lines were cultured under optimal conditions for their growth in the appropriate medium in plastic bottles or plastic Petri dishes of various sizes (TPP, BD Biosciences) at 37° C., 5% CO2 and 95% humidity. HUVEC cells were purchased from BD Biosciences. CCRF-CEM cell line was obtained from ATCC/LGC Standards (American Type Cell Collection).
Suspension cell line CCRF-CEM is a continuous in vitro culture of acute lymphoblastic leukemia. Cell line CCRF-CEM was grown in RPMI 1640 medium (Sigma-Aldrich, cat. No. R8758) supplemented with 2 mmol·l^−1 glutamine (Invitrogen, cat. No. 35050-038), 10% fetal bovine serum (FBS; Sigma-Aldrich, cat. No. F9665), 100 IU/ml penicillin, 100 μg/ml streptomycin (Sigma-Aldrich, cat. No. P0781). Passaging was carried out 2-3 times a week. Population doubling time of CCRF-CEM cells under the used culture conditions is 20 hours.
For testing of the sensitivity of cell lines to studied helquats XTT cytotoxicity/proliferation assay for determination of cell viability was used. This method is based on the ability of metabolically active cells to reduce the yellow tetrazolium salt XTT to orange formazan. The rate of conversion is measured as the increase in absorbance at 492 nm and is proportional to the enzymatic activity of mitochondrial dehydrogenases and thus the number of metabolically active (viable) cells. The output is the IC50 value corresponding to the concentration of the test substance that causes a decrease in the number of viable cells by half (i.e. 50% slowdown of cell division) relative to the control, untreated population. Thus it reflects the effectiveness of the test substance towards the tested cell line.
Cells in exponential growth phase were plated into 96-well microtiter plate at a concentration of 3000 cells per well. Each well contained 90 μl of cell suspension. The following day, 10 μl of 10× concentrated test substances was added. Effect of helquats has been studied in the concentration range 1-100 μmol·l^−1 (or 1, 2.5, 5, 7.5, 10; 15; 25; 50 and 100 μmol·l^−1). In addition to the part of the plate containing the mentioned dilutions of test compounds there were always two control columns present, first column with medium alone (i.e. blank) and the second column with the cells in medium without test compounds (control). Into the blank and control wells the same volume of solvent (water) as the volume of the substances was added. After 72 hours of treatment with substances the measurement of viability was performed according to the manufacturer instructions. Briefly, into each well of a 96-well microtiter plate 50 μl of the prepared working solution of XTT (detection reagent) was added and then the microtiter plate was returned to the CO2 incubator. After 2 hours, the absorbance of each well at 492 nm (reference wavelength 690 nm) was measured using a multifunctional microplate reader (Tecan Genios, Austria).
The results of determination of the viability of cancer and normal cells after treatment with different concentrations of test substances are summarized in Table 9. […] Each concentration of a helquat was tested in triplicates within one IC50 value determination. Each of these IC50 value determinations was repeated in at least three independent experiments. Values above 100 μmol·l^−1 were obtained by extrapolation of data measured in the concentration range 0-100 μmol·l^−1 of helquats.

The mark [2] stands for this setting: helquat 50 μmol · l^−1, HGC-27, firefly normalized to Renilla, 24 hours after transfection.
Setting [3] is: Homo sapiens, HUVEC, 72 hours of treatment, values above 100 μmol·l^−1 obtained by extrapolation, read-out: IC50 HUVEC.
Setting [4] is: Homo sapiens, HUVEC, 72 hours, summary of table 9, read-out: concentrations non-toxic towards HUVEC cells.
Where [5] appears, read: Homo sapiens, CCRF-CEM, 72 hours of treatment, read-out: IC50 CCRF CEM.
Setting [6] is: Homo sapiens, CCRF-CEM, 72 hours, summary of table 9, read-out: concentrations toxic towards CCRF-CEM cells.

The text below walks through data of patent US9932339B2, “Helquats with heteroaromatic substituents, preparation thereof, and use thereof as G-quadruplex stabilizers” (USTAV ORGANICKE CHEMIE A BIOCHEMIE AV CR, V.V.I., priority 2014, dated 2018).

Like-named read-outs stand apart in the source and are kept apart here.

Consider “2,13-bis((E)-2-(5-bromothiophen-2-yl)vinyl-8,9-dimethyl-6,7,10,11-tetrahydrodipyrido[2,1-a: 1′,2′-k][2,9]phenanthroline-5,12-diium trifluoromethanesulfonate [MJB-C5-3]”, for which, in experiment [1] (setting [2]), the “luciferase expression relative to control (control = 100%)” value turned out to be 65%.

With “19-((E)-2-(7-methyl-1H-indol-3-yl)vinyl)-6,7,8,11,12,13-hexahydropyrido[1′,2′″:1″,2″]azepino[4″,3″:5′,6′]benzo[1′,2′:3,4]azepino[1,2-a]quinoline-5,14-diium trifluoromethanesulfonate [MSC-C10-31]”, the IC50 in the experiment with HUVEC (72 hours of treatment, values above 100 μmol·l^−1 obtained by extrapolation, read-out: IC50 HUVEC) is not below 51 µM; in the experiment with CCRF-CEM (72 hours of treatment, read-out: IC50 CCRF CEM), 11 to 25 µM.

One may read the inhibition as the percentage by which the read-out fell short of the control. In the case of `C(=C\c1cc(/C=C/c2ccsc2)[n+]2c(c1)-c1c(ccc3c1-c1cccc[n+]1CC3)CC2)/c1ccsc1` [HTA-C5-9, 2,4-bis((E)-2-(thiophen-3-yl)vinyl)-6,7,10,11-tetrahydrodipyrido[2,1-a:1′,2′-k][2,9]phenanthroline-5,12-diium trifluoromethanesulfonate], the inhibition at 50 µM in experiment [1] is more than 10%. Also, in experiment [1] (setting [2]), the activity at 50 µM was found to be 85%.

Turning to `Cc1c(C)c2c(c3c1CC[n+]1ccc(/C=C/c4c[nH]c5ccc(Br)cc45)cc1-3)-c1c3ccccc3cc[n+]1CC2` [MJA-C9-30, (E)-13-(2-(5-bromo-1H-indol-3-yl)vinyl)-6,7-dimethyl-4,5,8,9-tetrahydroisoquinolino[1,2-a]pyrido[1,2-k][2,9]phenanthroline-3,10-diium trifluoromethanesulfonate], the inhibition at 50 µM in experiment [1] was more than 40%. In experiment [1] (setting [2]), the activity at 50 µM was 55%.

For the compound `Cc1c(C)c2c(c3c1CC[n+]1ccc(/C=C/c4ccc5oc6ccccc6c5c4)cc1-3)-c1c3ccccc3cc[n+]1CC2` [MJA-C13-22, (E)-13-(2-(dibenzo[b,d]furan-2-yl)vinyl)-6,7-dimethyl-4,5,8,9-tetrahydroisoquinolino[1,2-a]pyrido[1,2-k][2,9]phenanthroline-3,10-diium trifluoromethanesulfonate], the IC50 is not below 100 µM in the experiment with HUVEC (setting [3]), more than 100 µM in the experiment with HUVEC (setting [4]), not above 10 µM in the experiment on CCRF-CEM (setting [5]) and less than 25 µM in the experiment on CCRF-CEM (setting [6]).

In the case of `C(=C\c1cc(-c2ccccc2)cs1)/c1cc[n+]2c(c1)-c1c(ccc3c1-c1c4ccccc4cc[n+]1CC3)CC2` [MSB-C11-7, (E)-13-(2-(4-phenylthiophen-2-yl)vinyl)-4,5,8,9-tetrahydroisoquinolino[1,2-a]pyrido[1,2-k][2,9]phenanthroline-3,10-diium trifluoromethanesulfonate], the IC50 is not below 100 µM in the experiment with HUVEC (setting [3]), more than 100 µM in the experiment with HUVEC (setting [4]), 11 to 25 µM in the experiment on CCRF-CEM (setting [5]) and less than 25 µM in the experiment with CCRF-CEM (setting [6]).

In the case of `C(=C\c1c[nH]c2c1ccc1ccccc12)/c1cc[n+]2c(c1)-c1c(ccc3c1-c1c4ccccc4cc[n+]1CC3)CC2` [MSB-C13-16, (E)-13-(2-(1H-benzo[g]indol-3-yl)vinyl)-4,5,8,9-tetrahydroisoquinolino[1,2-a]pyrido[1,2-k][2,9]phenanthroline-3,10-diium trifluoromethanesulfonate], the IC50 with HUVEC (setting [3]) was not below 51 µM; with CCRF-CEM (setting [5]), 11 to 25 µM.

On to `C(=C\c1cc2ccccc2[n+]2c1-c1c(ccc3c1-c1cccc[n+]1CCC3)CCC2)/c1ccc2[nH]ccc2c1` [MSC-C9-10, 19-((E)-2-(1H-indol-5-yl)vinyl)-6,7,8,11,12,13-hexahydropyrido[1′″,2′″:1″,2″]azepino[4″,3″:5′,6′]benzo[1′,2′:3,4]azepino[1,2-a]quinoline-5,14-diium trifluoromethanesulfonate], for which the IC50 with HUVEC (setting [3]) is not below 100 µM; in the experiment with HUVEC (setting [4]), more than 100 µM; in the experiment with CCRF-CEM (setting [5]), not above 10 µM; in the experiment with CCRF-CEM (setting [6]), less than 25 µM. For the same compound, in experiment [1], the inhibition at 50 µM is more than 40%. For the same compound, the activity at 50 µM in experiment [1] (setting [2]) was determined as 56%.

Turning to `Cc1c(C)c2c(c3c1CC[n+]1ccc4ccccc4c1-3)-c1cccc(/C=C/c3cccc4c3sc3ccccc34)[n+]1CC2` [VDJA-C13-20, (E)-11-(2-(dibenzo[b,d]thiophen-4-yl)vinyl)-6,7-dimethyl-4,5,8,9-tetrahydroisoquinolino[1,2-a]pyrido[1,2-k][2,9]phenanthroline-3,10-diium trifluoromethanesulfonate], the IC50 is not below 100 µM in the experiment on HUVEC (setting [3]), more than 100 µM in the experiment on HUVEC (setting [4]), 11 to 25 µM in the experiment with CCRF-CEM (setting [5]) and less than 25 µM in the experiment on CCRF-CEM (setting [6]).
